For assay [1], the target named is 26S proteasome non-ATPase regulatory subunit 14 (Homo sapiens, UniProt O00487). Description: inhibition of proteasome subunit RPN11 – biochemical, fluorescence polarization, uHTS hits, confirmation (AID 602368). It counts as functional.
Assay [2] has as its target T1, Sentrin-specific protease 1 (Homo sapiens, UniProt Q9P0U3). In words: Dose response confirmation of small molecule inhibitors of the catalytic domain of the SUMO protease, SENP1 in a FRET assay. Format: functional. To be noted: read-out: IC50_Mean.
The target of assay [3] is T1, Sentrin-specific protease 1. In words: potency of human SENP1 inhibitors, dose response, biochemical, kinetic FRET (AID 651697). Format: functional. The following applies: read-out: IC50_Mean.
The target in assay [4] is 72 kDa type IV collagenase (Homo sapiens, UniProt P08253). Description: Dose Response validation of uHTS RPN11 inhibitor hits using a MMP-2 Fluorescence assay. Format: functional.
For the next assay, the target named is Prothrombin (Bos taurus, UniProt P00735). In words: thrombin inhibition, dose response, biochemical, fluorescence polarization, uHTS hits (AID 602369). It counts as functional.
The target in assay [5] is T2, Voltage-gated N-type calcium channel alpha-1B subunit/Amyloid beta A4 precursor protein-binding family A member 1 (Homo sapiens, UniProt Q00975+Q02410). It counts as protein assay.
Assay [6] deals with Glucose-6-phosphate 1-dehydrogenase (Homo sapiens, UniProt P11413). Description: human G6PD enzyme inhibitors, dose response, selectivity assay for P. falciparum G6PD inhibitor project, biochemical, fluorescence (AID 504792). Format: functional.
Assay [7] can be described thus: Fluorescence-based cell-based high throughput dose response assay for inhibitors of the interaction of nucleotide-binding oligomerization domain containing 2 (NOD2) and the receptor-interacting serine-threonine kinase 2 (RIPK2). To be noted: Homo sapiens. It counts as functional.
The target of assay [8] is Mitogen-activated protein kinase 10 (Homo sapiens, UniProt P53779). Description: Dose response biochemical screening assay for inhibitors of c-Jun N-Terminal Kinase 3 (JNK3). [Related pubchem assays: 746 ].
Assay [9] concerns the target T3, Rac GTPase-activating protein 1 (Homo sapiens, UniProt Q9H0H5).
T3 sequence (Q9H0H5 whole entry): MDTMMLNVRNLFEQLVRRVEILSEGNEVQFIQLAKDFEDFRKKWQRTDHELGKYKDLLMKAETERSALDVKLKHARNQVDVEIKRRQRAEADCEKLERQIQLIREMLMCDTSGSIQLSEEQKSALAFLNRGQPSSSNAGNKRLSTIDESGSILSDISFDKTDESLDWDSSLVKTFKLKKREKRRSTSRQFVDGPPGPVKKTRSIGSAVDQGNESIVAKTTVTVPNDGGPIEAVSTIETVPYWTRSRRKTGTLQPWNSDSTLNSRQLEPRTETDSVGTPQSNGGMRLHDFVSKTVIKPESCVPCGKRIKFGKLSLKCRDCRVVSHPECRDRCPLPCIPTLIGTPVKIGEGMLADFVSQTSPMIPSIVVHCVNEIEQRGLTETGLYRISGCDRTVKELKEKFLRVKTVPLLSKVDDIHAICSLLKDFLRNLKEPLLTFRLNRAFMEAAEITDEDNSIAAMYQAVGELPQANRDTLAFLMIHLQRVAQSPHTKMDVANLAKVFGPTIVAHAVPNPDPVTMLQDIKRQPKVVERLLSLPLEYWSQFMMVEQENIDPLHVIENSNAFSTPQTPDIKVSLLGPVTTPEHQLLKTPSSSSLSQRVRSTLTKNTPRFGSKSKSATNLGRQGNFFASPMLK
Description: MgcRacGAP GTPase-activating activity inhibitors, confirmation, biochemical, ADP Hunter fluorescence, primary and confirmatory (AID 624330). It counts as functional.

In assay [10] the target is T2, Voltage-gated N-type calcium channel alpha-1B subunit/Amyloid beta A4 precursor protein-binding family A member 1. Format: protein assay. This is another data set of the same source.
Another assay has as its target Beta Lactamase (Pseudomonas aeruginosa, UniProt Q932Y6). In words: beta-lactamase reporter inhibitor potency, dose response, artefact control for NOD2-RIPK2 interaction inhibitor project, BLA reporter cells, FRET fluorescence (AID 651552). Format: functional, cell-based.
Another assay addresses Large T antigen (Simian virus 40, UniProt P03070). It counts as functional, Betapolyomavirus macacae.
In assay [11] the target is Beta-lactamase (Pseudomonas aeruginosa, UniProt Q79MP6).
For assay [12], the target named is T4, Short transient receptor potential channel 4 (Mus musculus, UniProt Q9QUQ5).
T4 sequence (Q9QUQ5 whole entry): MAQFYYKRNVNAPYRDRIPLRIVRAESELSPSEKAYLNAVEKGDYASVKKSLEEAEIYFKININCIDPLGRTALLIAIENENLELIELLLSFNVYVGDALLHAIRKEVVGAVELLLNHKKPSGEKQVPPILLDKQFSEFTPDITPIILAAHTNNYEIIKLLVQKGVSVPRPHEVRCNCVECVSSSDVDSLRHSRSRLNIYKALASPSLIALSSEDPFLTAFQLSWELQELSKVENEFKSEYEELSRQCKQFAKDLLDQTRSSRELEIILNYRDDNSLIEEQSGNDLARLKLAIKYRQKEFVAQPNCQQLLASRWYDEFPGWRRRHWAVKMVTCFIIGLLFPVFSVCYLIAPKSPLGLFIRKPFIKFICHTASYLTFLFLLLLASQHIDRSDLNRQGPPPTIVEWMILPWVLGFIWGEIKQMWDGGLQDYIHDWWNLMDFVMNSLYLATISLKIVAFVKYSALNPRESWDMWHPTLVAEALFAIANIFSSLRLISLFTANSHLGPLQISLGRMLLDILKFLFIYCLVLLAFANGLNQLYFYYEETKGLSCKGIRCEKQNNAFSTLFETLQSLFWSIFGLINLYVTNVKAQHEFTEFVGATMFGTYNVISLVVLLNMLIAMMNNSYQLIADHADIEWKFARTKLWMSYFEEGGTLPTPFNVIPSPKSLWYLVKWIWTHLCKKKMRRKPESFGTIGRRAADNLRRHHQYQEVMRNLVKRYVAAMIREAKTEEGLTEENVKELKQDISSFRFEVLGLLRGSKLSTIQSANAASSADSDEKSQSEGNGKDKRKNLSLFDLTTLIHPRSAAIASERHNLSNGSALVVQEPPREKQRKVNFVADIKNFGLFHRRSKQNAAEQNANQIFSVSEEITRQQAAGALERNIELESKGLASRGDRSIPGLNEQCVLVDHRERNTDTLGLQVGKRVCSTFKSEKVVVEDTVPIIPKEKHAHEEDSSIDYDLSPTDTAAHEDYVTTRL
In words: mouse TRPC4 channel activators, dose response, cell-based, HEK293 TRPC4/mu-opioid, Fluo-4 calcium (AID 434937). Format: functional.

Assay [13] has as its target Beta-lactamase (Salmonella choleraesuis (strain SC-B67), UniProt Q5J463).
In the next assay the target is Mu-type opioid receptor (Homo sapiens, UniProt P35372). It counts as functional, cell-based.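 Note: U2OS cells with beta-arrestin recruitment to OPRM1 by beta-gal complementation.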
The target in assay [14] is 5-hydroxytryptamine receptor 2A (Mus musculus, UniProt P35363). It counts as functional, cell-based.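 Note: CHO-K1 cells with tagged receptor and beta-arrestin; agonist potency measured as compound-induced activation of the receptor.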
The target of assay [15] is T5, Probable nicotinate-nucleotide adenylyltransferase (Staphylococcus aureus (strain N315), UniProt P65502). It counts as functional, Staphylococcus aureus subsp. aureus N315. The following applies: read-out: IC50_Mean.
In assay [16] the target is T5, Probable nicotinate-nucleotide adenylyltransferase. It counts as functional, Staphylococcus aureus subsp. aureus N315.
Assay [17] deals with Eukaryotic translation initiation factor 4E (Mus musculus, UniProt P63073). Description: eIF4E–eIF4G protein interaction inhibitors, dose response, biochemical, TR-FRET (AID 855).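 Note: potency for disrupting eIF4E binding to eIF4GI seen as loss of FRET.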 Format: functional.
Assay [18] in a line: Counterscreen for inhibitors of Trypanosoma brucei methionyl tRNA synthetase (MetRS): Luminescence-based cell-based high throughput dose response assay to identify compounds that are cytotoxic to Jurkat human T lymphocyte cells. Format: functional.
A short description of assay [19]: Counterscreen for IDE inhibitors: Luminescence-based cell-based high throughput dose response assay to identify compounds that are cytotoxic to HEK cells. [Related pubchem assays: 434962 (Primary screen (IDE inhibitors in singlicate)), 449730 (Counterscreen (Cytotoxicity in triplicate)), 435028 (Confirmation (IDE inhibitors in triplicate)) …. Format: functional. To be noted: HEK293.

Another assay deals with T6, Insulin-degrading enzyme (Homo sapiens, UniProt P14735).
T6 sequence (P14735 whole entry): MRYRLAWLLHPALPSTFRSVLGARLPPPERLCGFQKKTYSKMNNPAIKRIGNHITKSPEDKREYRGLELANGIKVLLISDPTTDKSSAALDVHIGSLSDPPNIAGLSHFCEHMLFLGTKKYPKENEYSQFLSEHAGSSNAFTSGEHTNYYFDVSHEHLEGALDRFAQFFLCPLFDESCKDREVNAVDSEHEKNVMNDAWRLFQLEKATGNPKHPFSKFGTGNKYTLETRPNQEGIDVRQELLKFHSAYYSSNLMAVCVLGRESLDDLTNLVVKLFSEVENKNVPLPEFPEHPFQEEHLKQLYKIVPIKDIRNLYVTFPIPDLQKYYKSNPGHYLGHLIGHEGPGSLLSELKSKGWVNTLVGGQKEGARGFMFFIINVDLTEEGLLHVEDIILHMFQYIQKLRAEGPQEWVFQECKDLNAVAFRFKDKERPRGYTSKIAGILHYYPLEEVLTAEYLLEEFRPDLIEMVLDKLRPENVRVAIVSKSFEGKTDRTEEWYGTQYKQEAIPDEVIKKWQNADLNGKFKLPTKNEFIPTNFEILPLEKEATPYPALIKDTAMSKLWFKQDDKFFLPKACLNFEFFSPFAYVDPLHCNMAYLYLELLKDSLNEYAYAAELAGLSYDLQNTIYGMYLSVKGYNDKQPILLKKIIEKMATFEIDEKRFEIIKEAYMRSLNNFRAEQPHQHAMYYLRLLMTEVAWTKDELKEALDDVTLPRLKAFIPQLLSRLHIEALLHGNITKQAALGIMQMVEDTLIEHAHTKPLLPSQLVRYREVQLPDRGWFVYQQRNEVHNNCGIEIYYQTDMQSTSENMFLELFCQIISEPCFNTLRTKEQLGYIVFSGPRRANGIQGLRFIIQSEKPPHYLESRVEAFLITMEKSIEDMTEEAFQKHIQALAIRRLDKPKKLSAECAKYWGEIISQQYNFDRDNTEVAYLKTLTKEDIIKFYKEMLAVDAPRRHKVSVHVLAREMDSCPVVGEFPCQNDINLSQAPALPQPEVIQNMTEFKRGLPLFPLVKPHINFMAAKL
Description: Dose Response: Fluorescence polarization-based cell-based high throughput dose response assay for inhibitors of insulin-degrading enzyme (IDE). [Related pubchem assays: 434962 (Primary screen (IDE inhibitors in singlicate)), 449730 (Counterscreen (Cytotoxicity in triplicate)), 435028 (Confirmation (IDE inhibitors in triplicate)), 434984 (Summary …. Format: functional.

For assay [20], the target named is T7, Methionyl-tRNA synthetase, putative (Trypanosoma brucei brucei, UniProt Q38C91).
T7 sequence (Q38C91 whole entry): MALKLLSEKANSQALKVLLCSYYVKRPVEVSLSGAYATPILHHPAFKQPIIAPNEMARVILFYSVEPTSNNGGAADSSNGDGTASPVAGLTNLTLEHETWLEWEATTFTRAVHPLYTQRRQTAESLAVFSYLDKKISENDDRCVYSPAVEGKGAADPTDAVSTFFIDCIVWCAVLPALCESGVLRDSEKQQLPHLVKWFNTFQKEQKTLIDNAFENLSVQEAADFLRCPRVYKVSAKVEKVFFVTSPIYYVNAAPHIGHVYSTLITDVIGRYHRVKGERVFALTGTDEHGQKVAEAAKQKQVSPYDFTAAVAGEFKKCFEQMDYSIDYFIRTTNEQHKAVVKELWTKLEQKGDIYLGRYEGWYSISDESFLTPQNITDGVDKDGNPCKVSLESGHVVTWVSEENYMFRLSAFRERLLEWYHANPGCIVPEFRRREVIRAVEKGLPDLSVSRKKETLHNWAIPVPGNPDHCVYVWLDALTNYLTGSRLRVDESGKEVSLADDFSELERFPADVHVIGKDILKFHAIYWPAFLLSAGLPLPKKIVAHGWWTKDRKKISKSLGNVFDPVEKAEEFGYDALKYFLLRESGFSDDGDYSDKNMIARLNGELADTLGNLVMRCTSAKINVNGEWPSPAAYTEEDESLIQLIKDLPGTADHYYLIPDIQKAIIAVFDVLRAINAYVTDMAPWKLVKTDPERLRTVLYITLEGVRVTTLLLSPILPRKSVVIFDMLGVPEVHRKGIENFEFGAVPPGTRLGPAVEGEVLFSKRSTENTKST
Format: functional, Trypanosoma brucei brucei strain 927/4 GUTat10.1.

Assay [21] concerns the target DNA repair and recombination protein RAD54-like (Homo sapiens, UniProt Q92698). Description: inhibitors of human RAD54 branch migration, confirmation, biochemical, fluorescence, cherry-picked samples, dose series (AID 651657). It counts as functional.
Assay [22] addresses T7, Methionyl-tRNA synthetase, putative. It counts as functional, Trypanosoma brucei brucei strain 927/4 GUTat10.1. The source holds these as a separate data set.

Active and inactive are the calls of the source.

T1 sequence (Q9P0U3 whole entry, the tested form may be a part): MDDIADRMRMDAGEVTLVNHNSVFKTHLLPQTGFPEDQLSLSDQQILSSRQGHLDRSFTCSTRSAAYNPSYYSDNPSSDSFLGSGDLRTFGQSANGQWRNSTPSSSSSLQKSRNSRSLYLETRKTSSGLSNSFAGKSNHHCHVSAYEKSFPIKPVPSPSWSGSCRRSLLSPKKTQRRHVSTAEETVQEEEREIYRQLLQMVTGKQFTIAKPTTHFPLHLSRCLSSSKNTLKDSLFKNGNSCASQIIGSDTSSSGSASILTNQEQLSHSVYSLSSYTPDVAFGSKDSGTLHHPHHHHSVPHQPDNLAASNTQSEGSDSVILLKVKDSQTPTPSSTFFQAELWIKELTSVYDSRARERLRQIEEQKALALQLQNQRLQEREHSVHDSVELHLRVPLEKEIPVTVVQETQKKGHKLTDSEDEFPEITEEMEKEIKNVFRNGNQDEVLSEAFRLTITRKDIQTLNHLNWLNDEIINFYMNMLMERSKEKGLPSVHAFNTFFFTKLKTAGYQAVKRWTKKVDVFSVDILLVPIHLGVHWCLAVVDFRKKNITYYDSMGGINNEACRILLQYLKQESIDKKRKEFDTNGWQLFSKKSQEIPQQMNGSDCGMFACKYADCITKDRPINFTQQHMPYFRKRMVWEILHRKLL
T5 sequence (P65502 whole entry): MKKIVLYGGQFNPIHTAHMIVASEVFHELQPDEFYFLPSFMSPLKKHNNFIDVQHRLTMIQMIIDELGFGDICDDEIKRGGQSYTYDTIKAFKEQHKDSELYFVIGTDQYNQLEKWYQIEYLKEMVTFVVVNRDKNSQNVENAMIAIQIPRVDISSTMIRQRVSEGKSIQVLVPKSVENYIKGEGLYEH
T2 sequence (Q00975 whole entry): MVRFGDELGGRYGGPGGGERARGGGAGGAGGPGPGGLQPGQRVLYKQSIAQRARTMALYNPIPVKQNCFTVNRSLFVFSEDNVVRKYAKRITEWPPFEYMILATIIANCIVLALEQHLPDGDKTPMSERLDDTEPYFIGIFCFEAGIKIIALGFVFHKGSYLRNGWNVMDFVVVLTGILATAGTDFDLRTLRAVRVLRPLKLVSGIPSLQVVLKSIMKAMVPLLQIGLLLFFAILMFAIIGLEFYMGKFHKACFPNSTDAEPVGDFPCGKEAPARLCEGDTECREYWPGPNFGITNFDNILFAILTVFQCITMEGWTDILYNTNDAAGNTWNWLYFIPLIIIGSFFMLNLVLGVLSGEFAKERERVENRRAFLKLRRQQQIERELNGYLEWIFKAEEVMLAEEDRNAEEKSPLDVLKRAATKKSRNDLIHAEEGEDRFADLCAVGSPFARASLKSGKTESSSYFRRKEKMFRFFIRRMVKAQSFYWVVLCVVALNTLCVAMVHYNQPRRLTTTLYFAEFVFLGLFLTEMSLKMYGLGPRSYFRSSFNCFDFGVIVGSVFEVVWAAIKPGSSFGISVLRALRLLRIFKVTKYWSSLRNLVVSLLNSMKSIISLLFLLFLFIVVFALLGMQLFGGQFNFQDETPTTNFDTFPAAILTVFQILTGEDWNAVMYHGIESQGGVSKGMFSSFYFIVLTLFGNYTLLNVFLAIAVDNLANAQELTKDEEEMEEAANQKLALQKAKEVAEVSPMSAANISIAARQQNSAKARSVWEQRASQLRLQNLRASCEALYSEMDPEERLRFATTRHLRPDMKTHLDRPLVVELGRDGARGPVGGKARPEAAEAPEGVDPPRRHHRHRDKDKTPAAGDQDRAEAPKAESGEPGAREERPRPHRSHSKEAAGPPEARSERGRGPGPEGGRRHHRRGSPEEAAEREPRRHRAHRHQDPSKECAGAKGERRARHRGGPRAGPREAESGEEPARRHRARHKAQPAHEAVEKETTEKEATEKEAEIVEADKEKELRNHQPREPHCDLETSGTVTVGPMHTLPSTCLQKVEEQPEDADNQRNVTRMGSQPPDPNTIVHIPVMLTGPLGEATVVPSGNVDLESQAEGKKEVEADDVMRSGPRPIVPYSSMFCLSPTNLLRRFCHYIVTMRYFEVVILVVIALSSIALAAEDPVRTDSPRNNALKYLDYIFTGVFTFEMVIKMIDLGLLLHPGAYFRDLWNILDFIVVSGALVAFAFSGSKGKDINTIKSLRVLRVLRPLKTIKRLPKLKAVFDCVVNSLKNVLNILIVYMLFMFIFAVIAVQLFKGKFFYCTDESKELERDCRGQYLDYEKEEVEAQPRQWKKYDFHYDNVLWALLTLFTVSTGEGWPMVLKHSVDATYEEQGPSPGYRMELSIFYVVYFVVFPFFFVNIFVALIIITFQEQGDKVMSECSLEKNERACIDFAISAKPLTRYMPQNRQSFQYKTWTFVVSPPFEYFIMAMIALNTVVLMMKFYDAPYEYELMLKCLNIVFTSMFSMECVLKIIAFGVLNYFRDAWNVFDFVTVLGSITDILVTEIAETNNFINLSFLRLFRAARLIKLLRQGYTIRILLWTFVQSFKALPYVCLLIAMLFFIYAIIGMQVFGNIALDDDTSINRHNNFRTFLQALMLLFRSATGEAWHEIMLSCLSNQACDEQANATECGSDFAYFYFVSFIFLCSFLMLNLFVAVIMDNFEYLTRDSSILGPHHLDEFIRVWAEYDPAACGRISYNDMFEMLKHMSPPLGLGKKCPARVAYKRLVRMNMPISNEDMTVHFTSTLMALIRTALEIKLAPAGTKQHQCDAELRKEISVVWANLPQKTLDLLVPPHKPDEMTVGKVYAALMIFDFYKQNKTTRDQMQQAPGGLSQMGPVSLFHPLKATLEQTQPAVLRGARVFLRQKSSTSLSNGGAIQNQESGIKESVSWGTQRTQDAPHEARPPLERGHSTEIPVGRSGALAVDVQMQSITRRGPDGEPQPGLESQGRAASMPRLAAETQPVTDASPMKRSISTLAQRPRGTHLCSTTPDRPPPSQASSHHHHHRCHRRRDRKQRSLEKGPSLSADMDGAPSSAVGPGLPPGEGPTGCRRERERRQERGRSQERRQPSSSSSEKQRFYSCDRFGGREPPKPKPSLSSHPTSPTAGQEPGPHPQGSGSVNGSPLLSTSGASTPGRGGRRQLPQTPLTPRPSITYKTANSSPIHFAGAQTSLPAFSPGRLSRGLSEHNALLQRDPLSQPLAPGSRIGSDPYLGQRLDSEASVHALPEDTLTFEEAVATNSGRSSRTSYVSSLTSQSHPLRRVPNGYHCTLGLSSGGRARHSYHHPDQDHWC
T2 sequence (Q02410 whole entry): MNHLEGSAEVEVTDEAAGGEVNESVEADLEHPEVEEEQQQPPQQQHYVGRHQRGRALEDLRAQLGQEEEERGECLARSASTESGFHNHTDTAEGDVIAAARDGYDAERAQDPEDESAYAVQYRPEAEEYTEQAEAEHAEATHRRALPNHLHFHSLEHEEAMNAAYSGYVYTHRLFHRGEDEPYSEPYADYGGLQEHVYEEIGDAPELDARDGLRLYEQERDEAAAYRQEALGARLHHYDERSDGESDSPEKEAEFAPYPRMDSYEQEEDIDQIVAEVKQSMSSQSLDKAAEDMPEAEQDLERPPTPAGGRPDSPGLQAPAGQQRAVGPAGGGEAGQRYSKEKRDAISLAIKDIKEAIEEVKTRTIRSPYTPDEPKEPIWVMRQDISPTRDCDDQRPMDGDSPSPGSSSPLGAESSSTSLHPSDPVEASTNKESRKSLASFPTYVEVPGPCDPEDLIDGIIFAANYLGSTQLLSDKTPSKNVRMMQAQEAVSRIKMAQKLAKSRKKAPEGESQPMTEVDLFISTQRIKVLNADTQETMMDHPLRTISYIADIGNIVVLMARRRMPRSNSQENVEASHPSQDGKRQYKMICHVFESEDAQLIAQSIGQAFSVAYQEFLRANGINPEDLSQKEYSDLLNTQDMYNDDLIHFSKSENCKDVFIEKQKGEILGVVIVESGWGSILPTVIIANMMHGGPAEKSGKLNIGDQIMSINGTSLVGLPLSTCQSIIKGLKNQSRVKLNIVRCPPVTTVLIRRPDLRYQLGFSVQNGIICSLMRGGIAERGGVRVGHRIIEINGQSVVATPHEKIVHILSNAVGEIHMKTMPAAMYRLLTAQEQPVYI
Chain of Eukaryotic translation initiation factor 4E (P63073 whole entry): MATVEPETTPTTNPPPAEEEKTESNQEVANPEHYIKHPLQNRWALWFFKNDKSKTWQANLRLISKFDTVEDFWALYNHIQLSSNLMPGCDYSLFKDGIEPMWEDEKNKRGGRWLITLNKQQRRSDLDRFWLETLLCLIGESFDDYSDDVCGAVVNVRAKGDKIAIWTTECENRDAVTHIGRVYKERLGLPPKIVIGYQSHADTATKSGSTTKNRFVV
Chain of Beta Lactamase (Q932Y6 whole entry): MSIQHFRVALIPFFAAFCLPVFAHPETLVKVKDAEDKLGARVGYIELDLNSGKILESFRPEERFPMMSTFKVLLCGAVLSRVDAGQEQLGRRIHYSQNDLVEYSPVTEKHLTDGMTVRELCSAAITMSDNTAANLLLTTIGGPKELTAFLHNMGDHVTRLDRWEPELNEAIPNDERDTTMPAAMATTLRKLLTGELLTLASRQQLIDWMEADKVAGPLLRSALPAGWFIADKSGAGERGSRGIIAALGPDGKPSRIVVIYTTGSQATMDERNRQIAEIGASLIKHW
Chain of 5-hydroxytryptamine receptor 2A (P35363 whole entry): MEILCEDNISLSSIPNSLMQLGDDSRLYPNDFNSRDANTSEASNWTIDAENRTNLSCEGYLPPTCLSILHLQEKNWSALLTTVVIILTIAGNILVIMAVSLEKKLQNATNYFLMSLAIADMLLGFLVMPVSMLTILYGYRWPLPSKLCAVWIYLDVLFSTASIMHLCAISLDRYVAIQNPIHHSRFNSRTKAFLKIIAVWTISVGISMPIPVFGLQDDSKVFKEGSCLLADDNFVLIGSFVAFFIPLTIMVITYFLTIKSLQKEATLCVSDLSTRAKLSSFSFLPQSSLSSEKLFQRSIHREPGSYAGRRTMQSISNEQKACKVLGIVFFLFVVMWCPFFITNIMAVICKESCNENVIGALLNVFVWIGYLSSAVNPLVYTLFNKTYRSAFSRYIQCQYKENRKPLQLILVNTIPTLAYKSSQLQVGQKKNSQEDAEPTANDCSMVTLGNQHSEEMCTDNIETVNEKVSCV

On to `COc1ccc2c(C)cc(SCC(=O)N3CCOCC3)nc2c1`, for which the IC50 was 9.61 µM (active) in [1]; 7.01 µM (active) in [2]; 13.3 µM (active) in assay [3]; > 100 µM (inactive) in assay [4]; 21.6 µM (active) on Prothrombin.

As to `CC1=C(C)C[S+]([O-])N(S(=O)(=O)c2ccc(Cl)cc2)C1` (configuration not stated), the IC50 in [5] was 30.9 µM (active); in [6] it was > 80 µM (inactive); in assay [7] it was 5.57 µM (active); in [8] it was > 93.1 µM (not active); in assay [9], 71.9 µM (active); in [10] it was > 50 µM (inactive). In addition, the values for the IC50 at Beta Lactamase and on Large T antigen were 25.8 µM (inactive) and 18.1 µM (active), respectively.

Consider `O=C1/C(=C\c2cc(Cl)c(O)c(Cl)c2)SC(=S)N1Cc1ccccc1`, for which the IC50 on Beta-lactamase [11] is > 59.6 µM (inactive); at Beta-lactamase [13], 3.15 µM (active). Also, the EC50 in [12] was 5.31 µM (active).

Turning to `CN(C)S(=O)(=O)c1cc(NC(=O)CN2CCN(c3ccccc3)CC2)ccc1Cl`, the EC50 is 92.4 µM (inactive) at Mu-type opioid receptor and 30.5 µM (inactive) in [14].

Consider `Cc1ccc(-c2cc(-c3ccc(Cl)cc3)c(C#N)c(N)n2)o1`, for which the IC50 in assay [15] was 808 nM (active); in [16] it was 461 nM (active); in [17], > 64 µM (inactive).

Take `Clc1ccc2[nH]c3c(NCCCN4CCOCC4)ncnc3c2c1`: the IC50 in assay [18] was 59.8 µM (inactive); in assay [19] it was 14.3 µM (not active); at Insulin-degrading enzyme it was 10.9 µM (not active); in [20] it was 11.3 µM (inactive); in [22] it was 9.1 µM (active). Moreover, in assay [21], the AC50 was 33.7 µM (active).
